The record followed here is patent US20190352297A1, “SELECTIVE AURORA A KINASE INHIBITORS” (UNIVERSITAT BERN, priority 2017, published 2019).

In one test the target is T1, AuroraB/INCENP complex (Homo sapiens, UniProt Q96GD4).
T1 construct: purchased Millipore 14-835
The test can be described thus: HTRF kinase assay, AuroraB/INCENP complex. The test is classed as biochemical. Here is the method: Aurora A and AuroraB kinases were assayed using the homogeneous time-resolved fluorescence (HTRF) KinEASE STK2 kit from Cisbio (France). […] For both enzymes, the reactions were run for 30 min at room temperature and stopped by the addition of 10 μL of detection buffer containing EDTA, antiphospho-Ser/Thr antibody labelled with europium cryptate, and XL-665 conjugated streptavidin (62.5 nM final concentration). After incubation at room temperature for one hour, fluorescence was measured at 620 nm (europium cryptate) and 665 nm (XL-665) after excitation at 317 nm (lag time 60 μs, integration time 500 μs) using a Tecan Infinite M1000 PRO microplate reader (Greiner 384-well plates, white, non-binding, small volume). The ratio of fluorescence (665 nm/620 nm) was calculated for each well and the results were expressed as follows: specific signal=ratio (sample)−ratio (negative control), where ratio=665 nm/620 nm×10^4. Compounds were measured in threefold serial dilutions at 10 different concentrations, covering the concentration range from no to full inhibition. Each concentration was measured in duplicates, and two independent determinations were made for each IC50 value. IC50 curves were generated using a four-parameter logistic model (XLfit from IDBS).

A further test deals with 456 kinases. The test can be described thus: Kinome scan of 456 kinases (scanMAX). The test is classed as binding. The note with it: screened at 1 μM. Here is the method: (§1) The kinome profiling of compound 9 was conducted by DiscoveRx. In total, 456 kinases were assayed (scanMAX). For most assays, kinase-tagged T7 phage strains were grown in parallel in 24-well blocks in an E. coli host derived from the BL21 strain. E. coli were grown to log-phase and infected with T7 phage from a frozen stock (multiplicity of infection=0.4) and incubated with shaking at 32° C. until lysis (90-150 minutes). The lysates were centrifuged (6000 g) and filtered (0.2 μm) to remove cell debris. The remaining kinases were produced in HEK-293 cells and subsequently tagged with DNA for qPCR detection. […] The liganded beads were blocked with excess biotin and washed with blocking buffer (SeaBlock (Pierce), 1% BSA, 0.05% Tween 20, 1 mM DTT) to remove unbound ligand and to reduce non-specific phage binding. […] Test compounds were prepared as 40× stocks in 100% DMSO and directly diluted into the assay. All reactions were performed in polypropylene 384-well plates in a final volume of 0.04 ml. […] The kinase concentration in the eluates was measured by qPCR. Compound 114 was screened at 1 μM, and results for primary screen binding interactions were reported as % of control (PoC). PoC=(test compound signal−positive control signal)/(DMSO signal−positive control signal). […] KD values were determined with a standard dose-response curve using the Hill equation.

Another test addresses T2, Aurora A (Homo sapiens, UniProt O14965).
T2 sequence (O14965 1-403): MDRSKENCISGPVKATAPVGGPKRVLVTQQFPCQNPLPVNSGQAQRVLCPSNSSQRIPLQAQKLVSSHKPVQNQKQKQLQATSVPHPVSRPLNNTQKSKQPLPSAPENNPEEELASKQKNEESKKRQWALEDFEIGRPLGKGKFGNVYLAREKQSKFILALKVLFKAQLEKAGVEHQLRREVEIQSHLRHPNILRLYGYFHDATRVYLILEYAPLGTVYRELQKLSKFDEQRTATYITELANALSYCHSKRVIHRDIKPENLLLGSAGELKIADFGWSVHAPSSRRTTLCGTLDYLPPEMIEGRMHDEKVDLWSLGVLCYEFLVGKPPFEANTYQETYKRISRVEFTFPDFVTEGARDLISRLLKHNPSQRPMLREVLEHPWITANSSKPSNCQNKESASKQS
Nature of the test: Active site directed binding competition assay, KD (DiscoveRx). The note with it: free Aurora A. Here is the method: as §1, with “signal). PoC values at 1 μM 9 for all kinases were visualized using TREEspot (DiscoveRx).” for “signal).”

Test [1] addresses T3, Aurora B (without INCENP) (Homo sapiens, UniProt Q96GD4).
T3 construct: purchased DiscoveRx scanMAX
Described as above. Here is the method:
as §1, with “signal). PoC values at 1 μM 9 for all kinases were visualized using TREEspot (DiscoveRx).” for “signal).”

The target in the next test is T4, Aurora C (Homo sapiens, UniProt Q9UQB9).
T4 construct: purchased DiscoveRx scanMAX
T4 sequence (Q9UQB9 1-309): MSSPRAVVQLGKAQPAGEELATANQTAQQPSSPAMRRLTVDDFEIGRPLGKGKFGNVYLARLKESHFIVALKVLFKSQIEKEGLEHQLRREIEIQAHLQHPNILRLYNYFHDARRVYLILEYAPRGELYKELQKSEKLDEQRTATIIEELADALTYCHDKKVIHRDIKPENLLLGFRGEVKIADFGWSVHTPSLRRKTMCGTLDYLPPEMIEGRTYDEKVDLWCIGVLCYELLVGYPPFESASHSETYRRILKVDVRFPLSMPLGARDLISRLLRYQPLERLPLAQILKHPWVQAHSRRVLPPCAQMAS
The description is as above. As for the experimental part: as §1, with “signal). PoC values at 1 μM 9 for all kinases were visualized using TREEspot (DiscoveRx).” for “signal).”

For another test, the target named is T5, Aurora A (Trp277) (Homo sapiens, UniProt O14965).
T5 construct: human Aurora A kinase domain (residues 122-403 in the pET24-d vector); His-tag (cleaved yes); made in house; host or cells: E. coli BL21 (DE3) Rosetta
T5 sequence (O14965 122-403): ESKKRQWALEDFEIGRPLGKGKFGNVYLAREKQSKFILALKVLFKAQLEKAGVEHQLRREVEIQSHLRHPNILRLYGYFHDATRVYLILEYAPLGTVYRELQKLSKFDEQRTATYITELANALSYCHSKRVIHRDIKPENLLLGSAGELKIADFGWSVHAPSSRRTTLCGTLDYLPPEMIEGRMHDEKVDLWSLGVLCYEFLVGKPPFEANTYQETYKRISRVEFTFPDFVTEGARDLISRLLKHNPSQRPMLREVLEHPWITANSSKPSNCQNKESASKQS
The test can be described thus: Intrinsic tryptophan fluorescence. The test is classed as binding. As for the experimental part: Binding experiments were performed by mixing Aurora A (500 nM, 375 nM, and 150 nM for 77, 9, and 88, respectively) with varying concentrations (0-100 μM) of the different compounds in buffer (final DMSO concentration 1%), followed by incubation for 15 min at room temperature. Tryptophan fluorescence spectra were recorded at room temperature using an Infinite M1000 Pro plate reader (Tecan) and Corning 96 well half area, flat bottom, non-binding surface, black polystyrene plates. Excitation occurred at 284 nm (bandwidth ±5 nm) and emission at 340 nm (bandwidth ±10 nm). The gain was calculated from the well with the highest protein concentration. Each measurement was done in triplicate.

T1 sequence (Q96GD4 whole entry): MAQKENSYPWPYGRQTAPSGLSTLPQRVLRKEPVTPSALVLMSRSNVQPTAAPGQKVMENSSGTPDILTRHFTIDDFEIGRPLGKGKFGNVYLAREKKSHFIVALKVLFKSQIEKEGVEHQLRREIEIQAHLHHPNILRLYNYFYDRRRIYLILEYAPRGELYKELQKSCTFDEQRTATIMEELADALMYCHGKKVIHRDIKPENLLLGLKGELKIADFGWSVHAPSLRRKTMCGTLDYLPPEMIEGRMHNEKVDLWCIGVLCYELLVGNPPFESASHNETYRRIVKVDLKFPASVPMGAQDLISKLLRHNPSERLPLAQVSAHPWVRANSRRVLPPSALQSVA
T1 sequence (Q9NQS7 whole entry partner): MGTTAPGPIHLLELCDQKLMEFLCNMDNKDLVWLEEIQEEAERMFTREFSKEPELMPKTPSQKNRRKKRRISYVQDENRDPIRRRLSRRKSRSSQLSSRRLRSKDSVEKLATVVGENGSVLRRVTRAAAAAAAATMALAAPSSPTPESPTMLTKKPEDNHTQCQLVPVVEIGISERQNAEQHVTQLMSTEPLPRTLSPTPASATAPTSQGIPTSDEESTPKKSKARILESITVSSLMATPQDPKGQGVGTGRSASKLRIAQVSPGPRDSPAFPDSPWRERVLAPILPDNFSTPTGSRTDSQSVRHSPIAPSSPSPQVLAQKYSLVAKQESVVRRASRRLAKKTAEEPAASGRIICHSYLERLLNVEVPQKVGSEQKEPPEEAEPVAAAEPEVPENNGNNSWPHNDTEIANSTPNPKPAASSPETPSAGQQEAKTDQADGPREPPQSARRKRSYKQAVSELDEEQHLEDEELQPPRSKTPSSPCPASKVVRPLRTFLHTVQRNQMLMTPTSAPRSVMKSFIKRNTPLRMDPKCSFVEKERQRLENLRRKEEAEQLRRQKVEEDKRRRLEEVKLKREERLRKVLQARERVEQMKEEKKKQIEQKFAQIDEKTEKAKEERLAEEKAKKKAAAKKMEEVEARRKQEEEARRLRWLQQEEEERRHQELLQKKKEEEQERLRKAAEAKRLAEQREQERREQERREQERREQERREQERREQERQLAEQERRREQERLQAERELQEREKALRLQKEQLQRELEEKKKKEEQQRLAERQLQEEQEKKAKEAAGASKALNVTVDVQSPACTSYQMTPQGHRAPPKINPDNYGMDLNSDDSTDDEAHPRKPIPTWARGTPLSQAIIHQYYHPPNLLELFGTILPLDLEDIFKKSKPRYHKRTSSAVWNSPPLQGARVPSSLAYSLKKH
T3 sequence (Q96GD4 whole entry): as the sequence (Q96GD4 whole entry) above

Consider `CCc1ccc(N=C2SC(=Cc3ccnc(Nc4ccc(C(=O)O)cn4)c3)C(=O)N2C)cc1` [Compound 9], for which the IC50 on AuroraB/INCENP complex (20 μM ATP, HTRF, read-out: IC50 Aurora B in complex with INCENP (biochemical)) is 0.149 ± 0.003 µM. The “weaker inhibition of Aurora B/INCENP compared to KD measured with free Aurora B” value at AuroraB/INCENP complex (IC50 Aurora B/INCENP versus KD free Aurora B) was determined as 15 fold. The kinome selectivity result in the test on 456 kinases is recorded as “remarkably selective”. In addition, the dissociation constant (Kd) came out at 0.005 µM at Aurora A, 0.01 µM in test [1] and 0.011 µM on Aurora C. Moreover, the “tryptophan fluorescence, environment of Trp277” value at Aurora A (Trp277) is “perturbed the environment of Trp277”.
